How the values were obtained:
[1] = system: MDA-MB-231; experiment: In vitro cell growth inhibition assay (MTT); format: cell-based, human; conditions: MDA-MB-231 human breast cancer cell line, 48 h, MTT; read-out: IC50 MDA-MB-231
Outline: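 IC50 values come from growth inhibition rates calculated from MTT absorbance at 540 nm. Compound exposure lasted 48 h on cells plated at 5000 per well.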

[2] = system: A2780; experiment: In vitro cell growth inhibition assay (MTT); format: cell-based, human; conditions: A2780 human ovarian cancer cell line, 48 h, MTT; read-out: IC50 A2780
Outline: (§1)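 5000 cells/well, overnight attachment; compounds 48 h (vehicle 0.2% DMSO); MTT 0.5 mg/mL, 4 h, 37° C; formazan in DMSO; A540. IC50 from growth inhibition rates.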

[3] = system: SKOV3; experiment: In vitro cell growth inhibition assay (MTT); format: cell-based, human; conditions: SK-OV-3; SKOV-3 human ovarian cancer cell line, 48 h, MTT; read-out: IC50 SKOV3
Outline: as §1

[4] = system: Hela; experiment: In vitro cell growth inhibition assay (MTT); format: cell-based, human; conditions: Hela human cervical cancer cell line, 48 h, MTT; read-out: IC50 Hela
Outline: as §1

[5] = system: tubulin in Hela cells; experiment: Immunoblotting analysis of polymerized/depolymerized tubulin; format: cell-based, human; conditions: 6 h
Method: After being treated with diluent (0.2% DMSO), tested compound, CA-4 or PTX for 6 h, Hela cells were lysed with microtubulestabilizing buffer, containing 100 mM PIPES, pH 6.8, 1 mM MgCl2, 2 mM EGTA, 0.5% NP-40, 2 M glycerol, 5 μM PTX and protease inhibitors cocktail (Roche), and the lysate was centrifuged at 15,000 rpm for 15 min. Supernatant containing depolymerized tubulin was carefully collected, whereas pellet (polymerized tubulin) was further dissolved in SDS-lysis buffer (Beyotime, China). Equal amounts of supernatant and dissolved pellet were subjected to immunoblotting analysis as described above using atubulin antibody (Proteintech).

[6] = system: tubulin in SKOV-3 cells; experiment: Immunofluorescent analysis of tubulin morphology; format: cell-based, human; conditions: 24 h
Method: After treatment with diluent (0.2% DMSO) or tested compounds at indicated concentrations for 24 h, SKOV-3 cells were fixed with methanol, permeabilized with 0.1% Triton X-100 in PBS and blocked by goat serum. Then the cells were incubated with a-tubulin antibody at 4° C. overnight, followed by incubation with Alexa 488 labeled secondary antibody (Jackson ImmunoResearch) at RT for 1 h. After being stained with DAPI, cells were examined and photographed with a Leica SP5 co-focal fluorescence microscope.

| SMILES | melting point [°C] | IC50 [1] [µM] | IC50 [2] [µM] | IC50 [3] [µM] | IC50 [4] [µM] | polymerized tubulin (immunoblotting) [5] | tubulin assembly (immunofluorescence) [6] |
| --- | --- | --- | --- | --- | --- | --- | --- |
| C=C1C(=O)N(c2cc(OC)c(OC)c(OC)c2)[C@H]1c1ccc(OC)c(OC(=O)c2ccccc2)c1 [Compound 18, (S)-2-methoxy-5-(3-methylene-4-oxo-1-(3,4,5-trimethoxyphenyl)azetidin-2-yl)phenyl benzoate] | 151 to 152 | 0.637 | 0.287 | 0.484 | 0.386 | – | – |
| C=C1C(=O)N(c2cc(OC)c(OC)c(OC)c2)[C@H]1c1ccc(OC)c(OCCCl)c1 [Compound 10, (S)-4-(3-(2-chloroethoxy)-4-methoxyphenyl)-3-methylene-1-(3,4,5-trimethoxyphenyl)azetidin-2-one] | 91 to 92 | 0.608 | 0.409 | 0.864 | 0.887 | – | – |
| C=C1C(=O)N(c2cc(OC)c(OC)c(OC)c2)[C@H]1c1ccc(OC)c(NS(N)(=O)=O)c1 [Compound 44, (S)—N-(2-methoxy-5-(3-methylene-4-oxo-1-(3,4,5-trimethoxyphenyl)azetidin-2-yl)phenyl)sulfamoylamide] | 101 to 102 | 0.841 | 0.354 | 0.833 | 0.456 | – | – |
| C=C1C(=O)N(c2cc(OC)c(OC)c(OC)c2)[C@H]1c1ccc(OC)c(OCCC)c1 [Compound 4, (S)-4-(4-methoxy-3-propoxyphenyl)-3-methylene-1-(3,4,5-trimethoxyphenyl)azetidin-2-one] | 90 to 91 | 5.62 | 3.42 | 5.26 | 6.89 | – | – |
| C=C1C(=O)N(c2cc(OC)c(OC)c(OC)c2)[C@H]1c1ccc(OC)c(OC(=O)N2CCOCC2)c1 [Compound 25, (S)-2-methoxy-5-(3-methylene-4-oxo-1-(3,4,5-trimethoxyphenyl)azetidin-2-yl)phenyl morpholine-4-carboxylate] | 82 to 83 | > 10 | > 10 | > 10 | > 10 | – | – |
| C=C1C(=O)N(c2cc(OC)c(OC)c(OC)c2)[C@H]1c1ccc(OC)c(OS(=O)(=O)N2CCOCC2)c1 [Compound 29, (S)-2-methoxy-5-(3-methylene-4-oxo-1-(3,4,5-trimethoxyphenyl)azetidin-2-yl)phenyl morpholine-4-sulfonate] | 134 to 135 | > 20 | 12.9 | 15.6 | 19.3 | – | – |
| C=C1C(=O)N(c2ccc(OC)c(OC)c2)[C@H]1c1ccc(OC)c(O)c1 [Compound 48, (S)-1-(3,4-dimethoxyphenyl)-4-(3-hydroxy-4-methoxyphenyl)-3-methyleneazetidin-2-one] | 74 to 75 | 6.1 | 4.57 | 14.8 | > 20 | – | – |
| C#CCOc1cc([C@H]2C(=C)C(=O)N2c2cc(OC)c(OC)c(OC)c2)ccc1OC [Compound 7, (S)-4-(4-methoxy-3-(prop-2-yn-1-yloxy)phenyl)-3-methylene-1-(3,4,5-trimethoxyphenyl)azetidin-2-one] | 106 to 107 | 1.2 | 0.429 | 0.841 | 1.05 | – | – |
| C=C1C(=O)N(c2cc(OC)c(OC)c(OC)c2)[C@H]1c1ccc(OC)c(NC(=O)c2ccc([N+](=O)[O-])cc2)c1 [Compound 43, (S)—N-(2-methoxy-5-(3-methylene-4-oxo-1-(3,4,5-trimethoxyphenyl)azetidin-2-yl)phenyl)-4-nitrobenzamide] | 234 to 235 | 2 | 0.931 | 1.43 | 1.58 | – | – |
| C=C1C(=O)N(c2cc(OC)c(OC)c(OC)c2)[C@H]1c1ccc(OC)c(O)c1 [Compound 1, (S)-4-(3-hydroxy-4-methoxyphenyl)-3-methylene-1-(3,4,5-trimethoxyphenyl)azetidin-2-one] | – | 0.234 | 0.143 | 0.128 | 0.186 | significantly inhibit tubulin aggregation | significantly inhibit tubulin aggregation |
| C=C1C(=O)N(c2cc(OC)c(OC)c(OC)c2)[C@H]1c1ccc(OC)c(OCC)c1 [Compound 3, (S)-4-(3-ethoxy-4-methoxyphenyl)-3-methylene-1-(3,4,5-trimethoxyphenyl)azetidin-2-one] | 92 to 93 | 0.958 | 0.854 | 1.14 | 2.03 | – | – |
| C=C1C(=O)N(c2cc(OC)c(OC)c(OC)c2)[C@H]1c1ccc(OC)c(OS(=O)(=O)CCCC)c1 [Compound 31, (S)-2-methoxy-5-(3-methylene-4-oxo-1-(3,4,5-trimethoxyphenyl)azetidin-2-yl)phenyl butane-1-sulfonate] | 99 to 100 | 7.29 | 5.32 | 10.2 | 14 | – | – |
| C=CC(=O)Oc1cc([C@H]2C(=C)C(=O)N2c2cc(OC)c(OC)c(OC)c2)ccc1OC [Compound 24, (S)-2-methoxy-5-(3-methylene-4-oxo-1-(3,4,5-trimethoxyphenyl)azetidin-2-yl)phenyl acrylate] | 109 to 110 | 0.565 | 0.328 | 0.522 | 0.49 | – | – |
| C=C1C(=O)N(c2cc(OC)c(OC)c(OC)c2)[C@H]1c1ccc(OC)c(OCCCCl)c1 [Compound 11, (S)-4-(3-(3-chloropropoxy)-4-methoxyphenyl)-3-methylene-1-(3,4,5-trimethoxyphenyl)azetidin-2-one] | 72 to 73 | 4.15 | 2.18 | 4.07 | 6.04 | – | – |

Source: patent US20200392150A1, “Diaryl-B-Lactam Compound and Preparation Method and Pharmaceutical Use Thereof” (Fudan University, priority 2016, published 2020)
